Structures are written as SMILES. Marks after values point to notes of the source that are not given here.

Data set [1] can be described thus: ABTS radical-scavenging activity. In kind it is biochemical. The following applies: compounds tested at 250 µM; mean ± standard deviation, n = 3. The procedure: The ABTS assay used herein was based on the method of Re et al. with slight modifications. Substances at concentrations of 250 µM, BHT or BHA were added to dilute ABTS solution and the absorbance at […] was measured. The antioxidant activity was calculated using the equation: % inhibition = 100 × (1 − sample abs/control abs).

Data set [2] in a line: DPPH radical-scavenging activity. In kind it is biochemical. The following applies: compounds tested at 250 µM; mean ± standard deviation, n = 3. Here is the method: The measurement of the scavenger activity of DPPH• was carried out according to the method of Molineux with modifications. Substances at 250 µM were added, at an equal volume, to the methanol solution of DPPH• ([…]). After 15 min at room temperature, the absorbance was recorded at 517 nm (sample abs). The experiment was repeated three times. BHT, BHA were used as controls. Values denote percentage of DPPH free radical inhibition. The antioxidant activity was calculated using the equation: % inhibition = 100 × (1 − sample abs/control abs).
A general note: Loss of DPPH colour is used to gauge radical scavenging.

The nature of data set [3]: Brine shrimp assay. Further details: species or system Artemia franciscana. The conditions noted are these: Artemia franciscana (brine shrimp), in vivo; read-out: Toxicity Brine shrimp (Artemia franciscana) (LC50).
Data set [4] relates to Artemia franciscana. The data set can be described thus: Brine shrimp assay. The conditions noted are these: in vivo.
Data set [5] has as its system 3T3L1 mouse embryonic fibroblast cell line. The data set can be described thus: Cellular antioxidant activity (oxidation of DCFH-DA). Type of data set: cell-based. Further details: inhibition of the oxidation of DCFH-DA in 3T3L1 cells: concentration or dose not given beside the values. The conditions noted are these: over the observation period of 60 min. The procedure:
These tests evaluate the reducing effect of a given substance on the radical species formed in situ during these assays leading to a decrease in color versus controls that is measured spectrophotometrically. […] Thus, at a concentration of 250 µM, 4-NC inhibited DPPH• and ABTS+• by 97% and 95%, respectively. Mono-O-substituted 4-NC derivatives 2–5 inhibited ABTS+• by 89–93%. […] The antioxidant activity was also evaluated in mouse embryonic 3T3L1 fibroblasts. In this assay DCFH-DA (2',7'-dichlorofluorescein diacetate) is hydrolyzed by intracellular esterases and then oxidized by reactive oxygen species (ROS) to the fluorescent compound 2'-7'-DCF. An active antioxidant substance can inhibit the transformation of fatty acids to fatty acid hydroperoxides in the cell membranes and thereby inhibit the oxidation of DCFH-DA.
The antioxidant activity of 4-NC and semi-synthetic derivatives of 4-NC was evaluated on the 1st and 30th days after dissolving the substances in DMSO at a concentration of 10 mM and storage in a freezer at −20 °C. This experiment permitted the evaluation of the relative stability of the antioxidant activity of 4-NC, derivatives of 4-NC, BHT and BHA. Thus, cellular antioxidants were evaluated using the mouse embryonic fibroblast 3T3L1 cell line. […] The presence of mono-O or di-O,O substituent groups in the 4-NC derivatives can confer stability relative to 4-NC. Such chemical stability is highly desirable when contemplating the use of such substances in cosmetic and pharmaceutical formulations and foods. Here, 4-NC dissolved in DMSO lost more than 80% of its antioxidant activity after 30 days in the freezer.
Intracellular ROS production was detected using the non-fluorescent cell permeating compound, 2'7'-dichlorofluorescein diacetate (DCF-DA), as described by Wolfe and Liu. DCF-DA is hydrolyzed by intracellular esterases and then oxidized by hydroperoxides into the fluorescent compound, 2'-7'-DCF. 3T3-L1 cells were seeded at a density of 6 × 10^4 cells/well in a 96-well microplate in 100 μL of growth medium. 24 h after seeding, the growth medium was removed and the wells were washed with PBS. Then, a 10 μM solution of DCFH-DA dissolved in Hank’s buffer (100 μL) was added to wells and incubated for 30 min at 37 °C and 5% CO2. The cells were washed first with PBS (100 μL) then EEP (100 µL) and samples having different concentrations were added. The fluorescence was immediately measured at an excitation wavelength of 485 nm and emission wavelength of 520 nm over 60 min at 5 min intervals. Controls with/without DCFH-DA were prepared and subjected to analogous procedures. Quercetin, BHA and BHT were used as positive controls of antioxidant activity.

The subject of data set [6] is human leukemia cells (HL-60 and CEM). Further details: method as in ref 1 = [1]; 1. Pinto A.C.S. Pessoa C.O. Costa-Lotufo L.V. Moraes M.O. Moraes M.E.A. Cavalcanti B.C. Nunomura S.M. Pohlit A.M. In vitro cytotoxicity of Pothomorphe peltata (L.) Miquel (Piperaceae), isolated 4-nero. The following applies: cited from earlier work.
For data set [7], the system named is Plasmodium berghei. The conditions noted are these: oral doses of 1–10 mg/kg/day (2.5–25 µmol/kg/day), 4-day suppressive test; cited from earlier work.

`C=CC(C)(CC/C=C(\C)CCC=C(C)C)c1ccc(OC(C)=O)c(OC(C)=O)c1` (stereo not shown) [Compound 7, O,O-diacetyl-4-nerolidylcatechol]: in data set [1], the “ABTS (%) percentage of inhibition” value was 8.60 ± 0.10 ^b %. For the same compound, the “DPPH• (%) percentage of inhibition” value in data set [2] was 6.36 ± 1.15 ^c %. In data set [3], the LC50 (commonly the concentration that kills 50% of the test population) is 83 µM. In addition, the “cytotoxic activity against Artemia franciscana in the brine shrimp assay” value in data set [4] is recorded as “moderately toxic”. Moreover, the “inhibition of the oxidation of DCFH-DA in 3T3L1 cells” value in data set [5] is given as at least 20%. For the same compound, the IC50 (commonly the concentration at which inhibition is half-maximal) in data set [6] is 15.5 to 15.6 µM. In data set [7], the “in vivo inhibitory activity in P. berghei-infected mice” value is reported as “significant in vivo inhibitory activity”.

The values above are taken from paper PMC6269653, “Stability and Antioxidant Activity of Semi-synthetic Derivatives of 4-Nerolidylcatechol” (Molecules, 2012).
